Assays:
SR = assay: panel of 60 human tumor cell lines, growth inhibition (Leukemia)
MDA-MB-435 = assay: panel of 60 human tumor cell lines, growth inhibition (Melanoma); details: MDA-MB-435
SK-MEL-28 = assay: as above; details: SK-MEL-28
UACC-62 = assay: as above; details: UACC-62
SF-295 = assay: panel of 60 human tumor cell lines, growth inhibition (CNS Cancer); details: SF-295
SF-539 = assay: as above; details: SF-539
SNB-19 = assay: as above; details: SNB-19
SNB-75 = assay: as above; details: SNB-75
COLO 205 = assay: panel of 60 human tumor cell lines, growth inhibition (Colon Cancer); details: COLO 205
HCC-2998 = assay: as above; details: HCC-2998
HCT-116 = assay: as above; details: HCT-116
ACHN = assay: panel of 60 human tumor cell lines, growth inhibition (Renal Cancer)
RXF 393 = assay: as above; details: RXF 393
SN12C = assay: as above
UO-31 = assay: as above; details: UO-31
BT-549 = assay: panel of 60 human tumor cell lines, growth inhibition (Breast Cancer); details: BT-549
NCI/ADR-RES = assay: panel of 60 human tumor cell lines, growth inhibition (Ovarian Cancer)
NCI-H322M = assay: panel of 60 human tumor cell lines, growth inhibition (Non-Small Cell Lung Cancer)

## C=C1C(=O)O[C@H]2[C@H]1CC/C(COC(=O)NCCO)=C\CC[C@@]1(C)O[C@@H]21 [JVM 2-50]
SR; Log10 Concentration −4.0
  Percent Growth: −30%
SR; Log10 Concentration −5.0
  Percent Growth: 18%
SR; Log10 Concentration −6.0
  Percent Growth: 91%
SR; Log10 Concentration −7.0
  Percent Growth: 100%
SR; Log10 Concentration −8.0
  Percent Growth: 100%
SR; NCI five dose
  GI50: 3.67 µM
MDA-MB-435; Log10 Concentration −4.0
  Percent Growth: −84%
MDA-MB-435; Log10 Concentration −5.0
  Percent Growth: 40%
MDA-MB-435; Log10 Concentration −6.0
  Percent Growth: 91%
MDA-MB-435; Log10 Concentration −7.0
  Percent Growth: 96%
MDA-MB-435; Log10 Concentration −8.0
  Percent Growth: 91%
MDA-MB-435; NCI five dose
  GI50: 6.37 µM
  TGI: 2.10E−5
SK-MEL-28; Log10 Concentration −4.0
  Percent Growth: −61%
SK-MEL-28; Log10 Concentration −5.0
  Percent Growth: 48%
SK-MEL-28; Log10 Concentration −6.0
  Percent Growth: 99%
SK-MEL-28; Log10 Concentration −7.0
  Percent Growth: 104%
SK-MEL-28; Log10 Concentration −8.0
  Percent Growth: 95%
SK-MEL-28; NCI five dose
  GI50: 9.33 µM
  TGI: 2.77E−5
UACC-62; Log10 Concentration −4.0
  Percent Growth: −84%
UACC-62; Log10 Concentration −5.0
  Percent Growth: 62%
UACC-62; Log10 Concentration −6.0
  Percent Growth: 97%
UACC-62; Log10 Concentration −7.0
  Percent Growth: 93%
UACC-62; Log10 Concentration −8.0
  Percent Growth: 93%
UACC-62; NCI five dose
  GI50: 12 µM
  TGI: 2.65E−5
SF-295; Log10 Concentration −4.0
  Percent Growth: 44%
SF-295; Log10 Concentration −5.0
  Percent Growth: 92%
SF-295; Log10 Concentration −6.0
  Percent Growth: 95%
SF-295; Log10 Concentration −7.0
  Percent Growth: 90%
SF-295; Log10 Concentration −8.0
  Percent Growth: 88%
SF-295; NCI five dose
  GI50: 73.7 µM
  TGI: 1.06E−4
SF-539; Log10 Concentration −4.0
  Percent Growth: −85%
SF-539; Log10 Concentration −5.0
  Percent Growth: 54%
SF-539; Log10 Concentration −6.0
  Percent Growth: 93%
SF-539; Log10 Concentration −7.0
  Percent Growth: 95%
SF-539; Log10 Concentration −8.0
  Percent Growth: 95%
SF-539; NCI five dose
  GI50: 10.8 µM
  TGI: 2.46E−5
SNB-19; Log10 Concentration −4.0
  Percent Growth: 19%
SNB-19; Log10 Concentration −5.0
  Percent Growth: 84%
SNB-19; Log10 Concentration −6.0
  Percent Growth: 95%
SNB-19; Log10 Concentration −7.0
  Percent Growth: 93%
SNB-19; Log10 Concentration −8.0
  Percent Growth: 99%
SNB-19; NCI five dose
  GI50: 32.6 µM
  TGI: >1.00E−4
SNB-75; Log10 Concentration −4.0
  Percent Growth: −20%
SNB-75; Log10 Concentration −5.0
  Percent Growth: 68%
SNB-75; Log10 Concentration −6.0
  Percent Growth: 79%
SNB-75; Log10 Concentration −7.0
  Percent Growth: 79%
SNB-75; Log10 Concentration −8.0
  Percent Growth: 70%
SNB-75; NCI five dose
  GI50: 16 µM
  TGI: 5.92E−5
COLO 205; Log10 Concentration −4.0
  Percent Growth: −80%
COLO 205; Log10 Concentration −5.0
  Percent Growth: 21%
COLO 205; Log10 Concentration −6.0
  Percent Growth: 108%
COLO 205; Log10 Concentration −7.0
  Percent Growth: 106%
COLO 205; Log10 Concentration −8.0
  Percent Growth: 96%
COLO 205; NCI five dose
  GI50: 4.87 µM
  TGI: 1.62E−5
HCC-2998; Log10 Concentration −4.0
  Percent Growth: −70%
HCC-2998; Log10 Concentration −5.0
  Percent Growth: 105%
HCC-2998; Log10 Concentration −6.0
  Percent Growth: 136%
HCC-2998; Log10 Concentration −7.0
  Percent Growth: 106%
HCC-2998; Log10 Concentration −8.0
  Percent Growth: 98%
HCC-2998; NCI five dose
  GI50: 20.6 µM
  TGI: 3.99E−5
HCT-116; Log10 Concentration −4.0
  Percent Growth: −75%
HCT-116; Log10 Concentration −5.0
  Percent Growth: 15%
HCT-116; Log10 Concentration −6.0
  Percent Growth: 90%
HCT-116; Log10 Concentration −7.0
  Percent Growth: 96%
HCT-116; Log10 Concentration −8.0
  Percent Growth: 93%
HCT-116; NCI five dose
  GI50: 3.43 µM
  TGI: 1.48E−5
HCT-116; read-out: LC50, NCI five dose
  CC50: 53.2 µM
ACHN; Log10 Concentration −4.0
  Percent Growth: 84%
ACHN; Log10 Concentration −5.0
  Percent Growth: 43%
ACHN; Log10 Concentration −6.0
  Percent Growth: 99%
ACHN; Log10 Concentration −7.0
  Percent Growth: 101%
ACHN; Log10 Concentration −8.0
  Percent Growth: 96%
ACHN; NCI five dose
  GI50: 7.44 µM
  TGI: 2.52E−5
RXF 393; Log10 Concentration −4.0
  Percent Growth: −68%
RXF 393; Log10 Concentration −5.0
  Percent Growth: 20%
RXF 393; Log10 Concentration −6.0
  Percent Growth: 98%
RXF 393; Log10 Concentration −7.0
  Percent Growth: 93%
RXF 393; Log10 Concentration −8.0
  Percent Growth: 91%
RXF 393; NCI five dose
  GI50: 4.14 µM
  TGI: 1.69E−5
SN12C; Log10 Concentration −4.0
  Percent Growth: −12%
SN12C; Log10 Concentration −5.0
  Percent Growth: 73%
SN12C; Log10 Concentration −6.0
  Percent Growth: 31%
SN12C; Log10 Concentration −7.0
  Percent Growth: 91%
SN12C; Log10 Concentration −8.0
  Percent Growth: 94%
SN12C; NCI five dose
  GI50: 18.6 µM
  TGI: 7.22E−5
UO-31; Log10 Concentration −4.0
  Percent Growth: −65%
UO-31; Log10 Concentration −5.0
  Percent Growth: 67%
UO-31; Log10 Concentration −6.0
  Percent Growth: 96%
UO-31; Log10 Concentration −7.0
  Percent Growth: 99%
UO-31; Log10 Concentration −8.0
  Percent Growth: 95%
UO-31; NCI five dose
  GI50: 13.5 µM
  TGI: 3.23E−5
BT-549; Log10 Concentration −4.0
  Percent Growth: −91%
BT-549; Log10 Concentration −5.0
  Percent Growth: 21%
BT-549; Log10 Concentration −6.0
  Percent Growth: 83%
BT-549; Log10 Concentration −7.0
  Percent Growth: 91%
BT-549; Log10 Concentration −8.0
  Percent Growth: 85%
BT-549; NCI five dose
  GI50: 3.26 µM
  TGI: 1.53E−5
NCI/ADR-RES; Log10 Concentration −4.0
  Percent Growth: 16%
NCI/ADR-RES; Log10 Concentration −5.0
  Percent Growth: 105%
NCI/ADR-RES; Log10 Concentration −6.0
  Percent Growth: 106%
NCI/ADR-RES; Log10 Concentration −7.0
  Percent Growth: 113%
NCI/ADR-RES; Log10 Concentration −8.0
  Percent Growth: 108%
NCI/ADR-RES; NCI five dose
  GI50: 41.5 µM
  TGI: >1.00E−4
NCI-H322M; Log10 Concentration −4.0
  Percent Growth: 32%
NCI-H322M; Log10 Concentration −5.0
  Percent Growth: 109%
NCI-H322M; Log10 Concentration −6.0
  Percent Growth: 105%
NCI-H322M; Log10 Concentration −7.0
  Percent Growth: 109%
NCI-H322M; Log10 Concentration −8.0
  Percent Growth: 105%
NCI-H322M; NCI five dose
  GI50: 58.8 µM
  TGI: >1.00E−4
